Reference: ChEMBL document CHEMBL3217455, “Peptides: minimal drug surrogates to interrogate and interfere with protein function” (Medchemcomm, 2013)
Where a SMILES comes first, the peptide text is derived from it.

Target: T1, Rhombotin-2 (Homo sapiens, UniProt P25791)
T1 sequence (P25791 whole entry): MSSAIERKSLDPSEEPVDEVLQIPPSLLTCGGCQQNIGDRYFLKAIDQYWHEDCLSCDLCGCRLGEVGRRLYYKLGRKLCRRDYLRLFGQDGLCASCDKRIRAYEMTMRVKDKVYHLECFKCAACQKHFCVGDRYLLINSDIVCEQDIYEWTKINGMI
Experiment: Binding affinity to GST-tagged LMO2 (unknown origin) by surface plasmon resonance analysis

CC[C@H](C)[C@H](NC(=O)[C@@H](NC(=O)[C@H](Cc1cnc[nH]1)NC(=O)[C@H](CC(C)C)NC(=O)[C@H](CCCNC(=N)N)NC(=O)[C@H](CO)NC(=O)[C@H](CCC(N)=O)NC(=O)[C@@H](N)CO)[C@@H](C)O)C(=O)N[C@@H](CC(C)C)C(=O)N[C@@H](CS)C(=O)N[C@@H](Cc1cnc[nH]1)C(=O)N[C@@H](CCC(=O)O)C(=O)N[C@@H](CS)C(=O)N[C@H](C(=O)N[C@H](C(=O)N[C@@H](CO)C(=O)N[C@@H](Cc1ccccc1)C(=O)N[C@@H](CC(C)C)C(=O)N[C@@H](CO)C(=O)N[C@@H](CC(C)C)C(=O)O)[C@@H](C)O)C(C)C (H-SQSRLHTILCHECVTSFLSL-OH)
Kd: 29 nM
